This is an account of results in patent publication US6517846B2, “Cosmetic composition” (Kyowa Hakko Kogyo Co., Ltd., priority 2000, dated 2003).

Series [1] deals with human normal keratinocytes. The experiment in a line: Cytotoxicity in human normal keratinocytes, MTT method. It is filed as cell-based. The settings on record: 48 hours incubation, 1 to 10,000 ppm, pH 7, mean n = 4. Here is the method:
(1) A method using 3-(4,5-dimethylthiazol-2-yl)-2,5-diphenyl tetrazolium bromide (MTT method):
This is a method where the number of living cells is evaluated by determining enzyme activity related to respiratory chain present in inner membranes of mitochondria in living cells. The amount of MTT formazan produced after incorporation of MTT into cells was determined by colorimetric quantification at a wavelength of 570 nm (reference: 650 nm). [See Sugawara, et al., “Saibou Baiyou (Cell Culture) III”, 4477-4482 (1984); J. Soc. Cosmet. Chem. Jpn., 27, 498-505 (1993)].
(§1) (4) Using the above three methods for the evaluation of suppression of cytotoxicity, suppressive effects of the test compounds on cytotoxicity were determined as follows.

The subject of series [2] is human normal keratinocytes. In words: Cytotoxicity in human normal keratinocytes, neutral red (NR) method. The format is cell-based. The settings on record: 48 hours incubation, 1 to 10,000 ppm, pH 7, mean n = 4. How it is done: (2) Neutral red (NR) method:
NR penetrates plasma membranes and is concentrated in lysosomes in normal cells, but is not capable of being incorporated into cells with surface damages. Thus, the NR method is a method where the number of living cells is evaluated by determining the amount of NR incorporated in living cells (the absorbance at a wavelength of 540 nm was measured), and was carried out according to the NR bioassay data book of Sanko Pure Chemicals.
as §1

Series [3] concerns human skin (forearm crook, females with roughening skin). In words: Water content in skin after repeated cup treatment (Skicon-200). It is filed as in vivo. The settings on record: for Change of water content immediately before the treatment / Change of water content immediately after the second treatment: 5 w/v % solution; for Change of water content immediately before the treatment: twice a day; for water content in the skin, tendency in words: summary of Table 3.
Experimental: A cup of 1-cm diameter was closely fixed to the skin of a forearm crook, and 0.5 ml of a solution containing 5 w/v % test compound was poured into the cup for treatment for 30 minutes. Then, the test site was washed with tepid water and wiped with a Kim wipe. The skin was acclimated under a constant environment at a temperature of 20° C. and a relative humidity of 50% for 20 minutes, and then, the water content in skin was measured using Skicon-200 (supplied by IBS Corporation). The treatment was repeated twice a day and continued for 4 days to determine the change of the water content in skin. The water content in each site to be treated before the treatment on day 0 was defined as 100%, and the water content in each site treated with the test compound immediately before and after the treatment (after the second treatment) on each day was determined as a relative value (%).

The subject of a further series is IL-1α. The note with it: mean n = 2.
In series [4] the test system is human skin (forearm crook, females with roughening skin). The settings on record: 78 hours after the first treatment on day 1, 5 w/v % solution.
Series [5] has the same test system.
Experimental: A cup of 1-cm diameter was closely fixed to the skin of a forearm crook, and 0.5 ml of a solution containing 5 w/v % test compound was poured into the cup for treatment for 30 minutes. Then, the test site was washed with tepid water and wiped with a Kim wipe.
On the next day of that when the above treatment was completed, transpiration rates of water at the treated sites were measured using a TEWA meter (TM210, supplied by Nippon Eurotech Co., Ltd.)
The test system of series [6] is human subjects (washing hands). The settings on record: grades scored; 1 Very irritative, 5 Very mild; mean n = 5.
Experimental: The test compounds were evaluated using the following five grades. The intermediate grade between 1 and 3 was made 2, and that between 3 and 5 was made 4. Each grade 1, 2, 3, 4, 5 was scored as −5, −1.5, 0, 1.5, and 5, respectively, and the average of the scores was calculated for each evaluation item.
Where [7] appears, read: Day 1 (0 hr.), baseline defined as 100%, 30 min.
The mark [8] stands for this setting: Day 1 (6 hr.), relative to pre-treatment = 100%.
Where [9] appears, read: Day 2 (24 hr.), relative to pre-treatment = 100%.
The mark [10] stands for this setting: Day 2 (30 hr.), relative to pre-treatment = 100%.
The mark [11] stands for this setting: Day 3 (48 hr.), relative to pre-treatment = 100%.
Setting [12] is: Day 3 (54 hr.), relative to pre-treatment = 100%.
Setting [13] is: Day 4 (72 hr.), relative to pre-treatment = 100%.
Setting [14] is: Day 4 (78 hr.), relative to pre-treatment = 100%.

Structures can show the parent of a compound that is named as a salt. Where two headings read alike, the source gives them in different places.

Experimental for IL-1α: The determination of IL-1α was carried out using an IL-1α human ELISA system supplied by Amarsham.
The cells were seeded in a 25 cm^2-flask coated with collagen and cultured at 37° C. under 5% of CO2 for 6 days.
One day after the seeding, the test compounds prepared at given concentrations (1 to 10,000 ppm, pH 7) were each added to the culture and continuously incubated for 48 hours.
Also, the release of IL-1α from the cultured cells was determined by calculating IL-1α concentration in the culture media with a lapse of time.

For the compound “triethanolamine N-cocoyl glutamate [GAT]”, in series [1], the “MTT, IC50” value came out at 60 ppm. In addition, the “NR, IC50” value in series [2] worked out at 48 ppm. For the same compound, the “Change of water content immediately before the treatment” value amounted to 100% in series [3] (setting [7]), 97% in series [3] (setting [9]), 111% in series [3] (setting [11]) and 80% in series [3] (setting [13]). For the same compound, the “Change of water content immediately after the second treatment” value (“Change … after the second treatment” below) was determined as 88% in series [3] (setting [8]), 76% in series [3] (setting [10]), 78% in series [3] (setting [12]) and 73% in series [3] (setting [14]). The “water content in the skin, tendency in words” value (“water content in the skin” for short) in series [3] is on record as “tendency to decrease immediately after the treatment”. Besides, the IL-1α in the series with IL-1α (10 ppm test compound) amounted to 172.16 pg/well; in the series on IL-1α (30 ppm test compound) it was 216.18 pg/well; with IL-1α (60 ppm test compound), 333.05 pg/well; in the series with IL-1α (100 ppm test compound) it was 313.78 pg/well; in the series with IL-1α (300 ppm test compound) it was 269.13 pg/well. In addition, the Desquamation result in series [4] is “Somewhat aggravated”; in series [4] (listed as N-cocoyl-L-glutamate) it was “much desquamation”. The Erythema result in series [4] was “None”. For the same compound, in series [5] (next day after the 4-day treatment, Control = 100, mean n = 4), the “Relative water transpiration rates” value was 138%. The “Irritation (after use), average score” value in series [6] was 1.2.

On to “Triethanolamine N-Cocoyl-L-glutaminate [GMT]”, for which, in series [1], the “MTT, IC50” value amounted to 70 ppm. Also, the “NR, IC50” value in series [2] is reported as 53 ppm. The “Change of water content immediately before the treatment” value in series [3] (setting [7]) is 100%; in series [3] (setting [9]), 135%; in series [3] (setting [11]), 168%; in series [3] (setting [13]), 140%. Besides, the “Change … after the second treatment” value is on record as 124% in series [3] (setting [8]), 126% in series [3] (setting [10]), 128% in series [3] (setting [12]) and 120% in series [3] (setting [14]). In series [3], the “water content in the skin” value was “tendency to increase with a lapse of time”.

As for `CCCCCCCCCCCC(=O)NCCC(=O)O` [LBA, sodium salt of lauroyl β-alanine], in series [1], the “MTT, IC50” value turned out to be 35 ppm. Also, the “NR, IC50” value in series [2] is on record as 33 ppm. Further, the “Change of water content immediately before the treatment” value in series [3] (setting [7]) is 100%; in series [3] (setting [9]), 88%; in series [3] (setting [11]), 104%; in series [3] (setting [13]), 93%. In addition, the “Change … after the second treatment” value in series [3] (setting [8]) came to 113%; in series [3] (setting [10]) it was 82%; in series [3] (setting [12]) it was 104%; in series [3] (setting [14]), 101%. Further, in series [3], the “water content in the skin” value is reported as “no effect on the water content was observed”. Besides, the Desquamation entry in series [4] is recorded as “A little”; in series [4] (listed as lauroyl β-alanine) it was “lowest”. In addition, the Erythema result in series [4] is reported as “None”. Besides, the “water transpiration rate, in words” value in series [5] (summary of Table 5) is “lowest”. Further, in series [6], the “Irritation (after use), average score” value came to 1.5.
